Test results: US12655394B2, “Ovarian cancer organoid culture” (MAX-PLANCK-GESELLSCHAFT ZUR FÖRDERUNG DER WISSENSCHAFTEN …, priority 2018, dated 2026)
Entries after “also recorded” stand apart in the source; their conditions may differ.

B1: Wnt 3a: Wnt protein, e.g. human Wnt 3a (RefSeq NP_149122) (protein, UniProt P56704 19-352, looked up)
Protein Wnt-3a: SYPIWWSLAVGPQYSSLGSQPILCASIPGLVPKQLRFCRNYVEIMPSVAEGIKIGIQECQHQFRGRRWNCTTVHDSLAIFGPVLDKATRESAFVHAIASAGVAFAVTRSCAEGTAAICGCSSRHQGSPGKGWKWGGCSEDIEFGGMVSREFADARENRPDARSAMNRHNNEAGRQAIASHMHLKCKCHGLSGSCEVKTCWWSQPDFRAIGDFLKDKYDSASEMVVEKHRESRGWVETLRPRYTYFKVPTERDLVYYEASPNFCEPNPETGSFGTRDRTCNVSSHGIDGCDLLCCGRGHNARAERRREKCRCVFHWCCYVSCQECTRVYDVHTCK

How the values were obtained:
[1] = tested on: organoid cell lines ORG1 and ORG2; test: Carboplatin treatment of organoid cancer lines, cell viability by luminescence (Cell Titer Glow 3D); type: cell-based, human; details: patient-derived HGSC organoid lines, triplicates, FIG. 5
Method: Cell vialiability (y axis) was determined proportional to the strength of luminiscence signal (Cell Titer® Glow 3D Promega). […] Immunofluorescence analysis of the key structural and functional biomarkers confirmed that organoids match native tumor tissue in phenotype, e.g. PAX8 confirming Mullerean lineage, EpCAM, p53 and p16 (FIG. 4). All tested organoid cultures were matched in phenotype to the fragment of native tumor processed and stained in standard procedure which was used for clinical diagnosis. Ovarian cancer cancer organoids mostly lack central cavities in contrast to fallopian tube organoids which are built of polarized epithelial monolayers. This is expected as histological atypia and stratification are present already in the early stages of the carcinogenesis in the fallopian tube (Shaw et al 2009, Modern Pathology 22, 1135-1138). Panel sequencing of paired organoid culture and tissue confirmed that the tested organoids recapitulate cancer tissue composition also on the genomic level. Importantly cultures can be expanded to multi-well format to enable high throughput experimental set up.

[2] = tested on: ovarian cancer stem cells; test: Establishment of ovarian cancer organoid lines with exogenous Wnt 3a supplementation; type: cell-based, human; details: all established lines grew in Wnt3a-negative media
Method: • Adv. +++: Advanced F12 Medium+HEPES (6 ml)+Glutamax (5 ml)+5% fetal calf serum (FCS) • Adv. ++: Advanced F12 Medium+HEPES (6 ml)+Glutamax (5 ml) • Cut tissue with a scissor in small pieces and then mince further with scalpel for 3-5 minutes • Collect all fragments, incubate with 2 ml Collagenase Type 1+2 ml Collagenase type II and transfer to a 6 well plate, • Incubate fragments for 45 min at 37° C. 5% CO2, • Add 5 ml Adv +++ and transfer in to a 50 ml Falcon tube, • Vortex vigorously for 30 seconds, • Let pieces settle down, take supernatant and transfer in to a fresh tube, • Add again 5 ml Adv +++, mix with a pipette, • Let pieces settle down, take supernatant and transfer in to a fresh tube, • Centrifuge for 5 min at 400 rpm, • Discard supernatant, • Prepare 10 ml Adv +++, add 30 μl Y-27632 and 10 μl hEGF (final conc. 10 ng/ml), • Resuspend cell pellet in medium, • Seed cell in a flask, • Incubate at 5% CO2 at 37° C. and grow cells 3-5 days prior to transfer to 3D culture. […]

Molecule | response to carboplatin treatment (cell viability) [1] | effect of exogenous supplementation on ovarian cancer stem cells [2]
N.N.O=C([O-])C1(C(=O)[O-])CCC1.[Pt+2] [carboplatin] | differences in responsivness and kinetics; also recorded: individual patient profiles in their response | –
B1 | – | detrimental
